# Results published in patent US8247170B2, “Detection of penicillin tolerance in Group B Streptococcus: single nucleotide polymorphisms in penicillin binding protein 4” (priority 2008, dated 2012).
# Test system: GBS clinical isolates and laboratory strains
# Experiment: Macrobroth penicillin tolerance assay
# Type: cell-based, Group B Streptococcus
# Details: then 24 h drug-free; for 30xMIC, regrowth O.D.600: Penicillin G 30×MIC90 48 h; for 100xMIC, regrowth O.D.600: Penicillin G 100×MIC90 48 h; for 300xMIC, regrowth O.D.600: Penicillin G 300×MIC90 48 h; for 10xMIC, regrowth O.D.600: Penicillin G 10×MIC90 48 h
# Experimental: Using this modified penicillin tolerance assay, tolerant strains from the GBS clinical isolates can be more efficiently identified. In this macrobroth culture format, 25 ml THB broth GBS cultures (containing clinical isolates) were grown to an early exponential growth phase (˜0.2 OD600). Cell cultures (6 ml) were collected and divided into 4 culture tubes. […] Cell cultures were shaken at 150 rpm in order to maintain cells in suspension for proper growth. Subcultures (1/20 dilution) of cells were put into fresh THB containing […] Penase (i.e., 100 μl of Penase 10,000 U stock into 4 ml THB culture). Subcultures were allowed to grow for 24 hours at 37° C. Cell growth was monitored by OD (see Example 2).
# (I) Bacterial Strains and Culture Conditions. GBS strains A909 (serotype IA), 515 (serotype IA), NEM316 (serotype III), COHI (serotype III), 2603V/R (serotype V) and O90R (non-typable) were used in this study. E. coli Top10 cells were used for the recombination experiments. GBS was cultured in Todd Hewitt broth (THB) or Tryptic Soy 5% sheep blood (TS) media and E. coli in Luria-broth (LB) medium or agar. Antibiotics were used at the following concentrations: for GBS—penicillin G (MIC90 0.06 μg ml^−1), ampicillin (MIC90 0.12 μg ml^−1), vancomycin (MIC90 2 μg ml^−1), cefazolin (MIC90 1 μg ml^−1) and chloramphenicol (5 μg ml^−1); for E. coli—ampicillin (50 μg ml^−1) and chloramphenicol (5 μg ml^−1). Both GBS and E. coli cultures were grown at 37° C. (II) Tolerance Using the MBC:MIC Ratio Method. Three GBS laboratory strains (i.e., A909, NEM316, and O90R) were cultured overnight for 18 h at 37° C. in THB. Subcultures in THB were subsequently grown to exponential phase (OD600˜0.3; i.e. 5×10^5 cfu/ml) at 37° C. Cell cultures were then exposed to different concentrations of antibiotics (Penicillin G, Ampicillin, Cefozolin or Vancomycin). […] Cell cultures were dispersed every 18 h before OD600 was measured to determine the lowest concentration of antibiotic with 90% growth inhibition (MIC90). Antibiotic treated cells (8 μl) from each well were re-suspended into PBS (100 μl) and plated (54 μl) on TS agar plates and allowed to grow for an additional 24 h at 37° C. Cell count was performed to determine the lowest concentration of antibiotic with 90% killing of original inoculums (MBC90). (III) Penicillin Killing and Regrowth Tolerance Assay by Microbroth Dilution. Three GBS laboratory strains (i.e., A909, NEM316, and O90R) were cultured overnight for 18 h at 37° C. in THB. Subcultures in THB were subsequently grown to exponential phase (OD600˜0.3) at 37° C. Cell cultures were then exposed to different concentrations of Penicillin G (Sigma, St. Louis, Mo.). […] Cell cultures were dispersed. A 1:20 dilution of cells was re-plated into new wells containing fresh THB with 500 U Penase (to degrade residual penicillin). Cell cultures were allowed to re-grow for an additional 24 h at 37° C. before the OD600 was measured. (IV) Measuring Cell Viability by Determining ATP Concentration. GBS strains were cultured for 18 h at 37° C. in THB. These cells were inoculated into fresh THB and subsequently allowed to grow to exponential phase (OD600 0.25-0.3) at 37° C. One ml of each culture was centrifuged at 5,000×g for 4 min. The cell pellet was re-suspended in ATP-free water. Cellular ATP was extracted using trichloroacetic acid (TCA) (5%) for 2 min and subsequently neutralized with Tris-EDTA-0.1M NaOAc, pH 7.75 to 10×TCA volume. The initial (in.) cellular ATP concentration ([ATP]) was measured using the ENLITEN (Promega) luciferase based reaction kit. THB cultures were then treated with 100×MIC90 Penicillin G for 22 h. The experimental (exp.) cellular ATP was extracted and the concentration was measured as stated above. Based on the calculations ([ATP] exp.)/([ATP] in./O.D. in.), differences in viability were equated with the change in [ATP]. (V) Measuring Penicillin Induced Lysis. Three GBS laboratory strains (A909, NEM316, and O90R) were cultured for 18 h at 37° C. in THB. […]
smiles,measurement,setting,value
CC1(C)S[C@@H]2[C@H](NC(=O)Cc3ccccc3)C(=O)N2[C@H]1C(=O)O [Penicillin G],"30xMIC, regrowth O.D.600",GBS strain 172 (NT),−− (“−−” indicates an O.D.600 of 0.001 to 0.099)
same,"100xMIC, regrowth O.D.600",GBS strain 172 (NT),−− (“−−” indicates an O.D.600 of 0.001 to 0.099)
same,"300xMIC, regrowth O.D.600",GBS strain 172 (NT),−− (“−−” indicates an O.D.600 of 0.001 to 0.099)
same,"10xMIC, regrowth O.D.600",GBS strain 180 (V),−− (“−−” indicates an O.D.600 of 0.001 to 0.099)
same,"30xMIC, regrowth O.D.600",GBS strain 180 (V),−− (“−−” indicates an O.D.600 of 0.001 to 0.099)
same,"100xMIC, regrowth O.D.600",GBS strain 180 (V),−− (“−−” indicates an O.D.600 of 0.001 to 0.099)
same,"300xMIC, regrowth O.D.600",GBS strain 180 (V),−− (“−−” indicates an O.D.600 of 0.001 to 0.099)
same,"10xMIC, regrowth O.D.600",GBS strain 193 (III),−− (“−−” indicates an O.D.600 of 0.001 to 0.099)
same,"30xMIC, regrowth O.D.600",GBS strain 193 (III),−− (“−−” indicates an O.D.600 of 0.001 to 0.099)
same,"100xMIC, regrowth O.D.600",GBS strain 193 (III),−− (“−−” indicates an O.D.600 of 0.001 to 0.099)
same,"300xMIC, regrowth O.D.600",GBS strain 193 (III),−− (“−−” indicates an O.D.600 of 0.001 to 0.099)
same,"10xMIC, regrowth O.D.600",GBS strain 204 (V),−− (“−−” indicates an O.D.600 of 0.001 to 0.099)
same,"30xMIC, regrowth O.D.600",GBS strain 204 (V),−− (“−−” indicates an O.D.600 of 0.001 to 0.099)
same,"100xMIC, regrowth O.D.600",GBS strain 204 (V),−− (“−−” indicates an O.D.600 of 0.001 to 0.099)
same,"300xMIC, regrowth O.D.600",GBS strain 204 (V),−− (“−−” indicates an O.D.600 of 0.001 to 0.099)
same,"10xMIC, regrowth O.D.600",GBS strain 211 (Ib),−− (“−−” indicates an O.D.600 of 0.001 to 0.099)
same,"30xMIC, regrowth O.D.600",GBS strain 211 (Ib),−− (“−−” indicates an O.D.600 of 0.001 to 0.099)
same,"100xMIC, regrowth O.D.600",GBS strain 211 (Ib),−− (“−−” indicates an O.D.600 of 0.001 to 0.099)
same,"300xMIC, regrowth O.D.600",GBS strain 211 (Ib),−− (“−−” indicates an O.D.600 of 0.001 to 0.099)
same,"10xMIC, regrowth O.D.600",GBS strain 219 (Ia),+ (“+” indicates an O.D.600 of 0.100 to 0.250)
same,"30xMIC, regrowth O.D.600",GBS strain 219 (Ia),+ (“+” indicates an O.D.600 of 0.100 to 0.250)
same,"100xMIC, regrowth O.D.600",GBS strain 219 (Ia),+ (“+” indicates an O.D.600 of 0.100 to 0.250)
same,"300xMIC, regrowth O.D.600",GBS strain 219 (Ia),+ (“+” indicates an O.D.600 of 0.100 to 0.250)
same,"10xMIC, regrowth O.D.600",GBS strain 244 (Ib),−− (“−−” indicates an O.D.600 of 0.001 to 0.099)
same,"30xMIC, regrowth O.D.600",GBS strain 244 (Ib),−− (“−−” indicates an O.D.600 of 0.001 to 0.099)
same,"100xMIC, regrowth O.D.600",GBS strain 244 (Ib),−− (“−−” indicates an O.D.600 of 0.001 to 0.099)
same,"300xMIC, regrowth O.D.600",GBS strain 244 (Ib),−− (“−−” indicates an O.D.600 of 0.001 to 0.099)
same,"10xMIC, regrowth O.D.600",GBS strain 264 (V),+++ (“+++” indicates an O.D.600 of 0.751 to 1.500)
same,"30xMIC, regrowth O.D.600",GBS strain 264 (V),++ (“++” indicates an O.D.600 of 0.251 to 0.750)
same,"100xMIC, regrowth O.D.600",GBS strain 264 (V),−− (“−−” indicates an O.D.600 of 0.001 to 0.099)
same,"300xMIC, regrowth O.D.600",GBS strain 264 (V),++ (“++” indicates an O.D.600 of 0.251 to 0.750)
same,"10xMIC, regrowth O.D.600",GBS strain 268 (Ib),++ (“++” indicates an O.D.600 of 0.251 to 0.750)
same,"30xMIC, regrowth O.D.600",GBS strain 268 (Ib),−− (“−−” indicates an O.D.600 of 0.001 to 0.099)
same,"100xMIC, regrowth O.D.600",GBS strain 268 (Ib),+++ (“+++” indicates an O.D.600 of 0.751 to 1.500)
same,"300xMIC, regrowth O.D.600",GBS strain 268 (Ib),+++ (“+++” indicates an O.D.600 of 0.751 to 1.500)
same,"10xMIC, regrowth O.D.600",GBS strain 272 (V),−− (“−−” indicates an O.D.600 of 0.001 to 0.099)
same,"30xMIC, regrowth O.D.600",GBS strain 272 (V),−− (“−−” indicates an O.D.600 of 0.001 to 0.099)
same,"100xMIC, regrowth O.D.600",GBS strain 272 (V),−− (“−−” indicates an O.D.600 of 0.001 to 0.099)
same,"300xMIC, regrowth O.D.600",GBS strain 272 (V),−− (“−−” indicates an O.D.600 of 0.001 to 0.099)
same,"10xMIC, regrowth O.D.600",GBS strain 273 (V),−− (“−−” indicates an O.D.600 of 0.001 to 0.099)
same,"30xMIC, regrowth O.D.600",GBS strain 273 (V),−− (“−−” indicates an O.D.600 of 0.001 to 0.099)
same,"100xMIC, regrowth O.D.600",GBS strain 273 (V),−− (“−−” indicates an O.D.600 of 0.001 to 0.099)
same,"300xMIC, regrowth O.D.600",GBS strain 273 (V),++ (“++” indicates an O.D.600 of 0.251 to 0.750)
same,"10xMIC, regrowth O.D.600",GBS strain 279 (III),++ (“++” indicates an O.D.600 of 0.251 to 0.750)
same,"30xMIC, regrowth O.D.600",GBS strain 279 (III),+++ (“+++” indicates an O.D.600 of 0.751 to 1.500)
same,"100xMIC, regrowth O.D.600",GBS strain 279 (III),++ (“++” indicates an O.D.600 of 0.251 to 0.750)
same,"300xMIC, regrowth O.D.600",GBS strain 279 (III),++ (“++” indicates an O.D.600 of 0.251 to 0.750)
same,"10xMIC, regrowth O.D.600",GBS strain 296 (Ia),−− (“−−” indicates an O.D.600 of 0.001 to 0.099)
same,"30xMIC, regrowth O.D.600",GBS strain 296 (Ia),−− (“−−” indicates an O.D.600 of 0.001 to 0.099)
same,"100xMIC, regrowth O.D.600",GBS strain 296 (Ia),++ (“++” indicates an O.D.600 of 0.251 to 0.750)
same,"300xMIC, regrowth O.D.600",GBS strain 296 (Ia),−− (“−−” indicates an O.D.600 of 0.001 to 0.099)
same,"10xMIC, regrowth O.D.600",GBS strain 306 (II),−− (“−−” indicates an O.D.600 of 0.001 to 0.099)
same,"30xMIC, regrowth O.D.600",GBS strain 306 (II),−− (“−−” indicates an O.D.600 of 0.001 to 0.099)
same,"100xMIC, regrowth O.D.600",GBS strain 306 (II),−− (“−−” indicates an O.D.600 of 0.001 to 0.099)
same,"300xMIC, regrowth O.D.600",GBS strain 306 (II),−− (“−−” indicates an O.D.600 of 0.001 to 0.099)
same,"10xMIC, regrowth O.D.600",GBS strain 307 (II),−− (“−−” indicates an O.D.600 of 0.001 to 0.099)
same,"30xMIC, regrowth O.D.600",GBS strain 307 (II),−− (“−−” indicates an O.D.600 of 0.001 to 0.099)
same,"100xMIC, regrowth O.D.600",GBS strain 307 (II),−− (“−−” indicates an O.D.600 of 0.001 to 0.099)
same,"300xMIC, regrowth O.D.600",GBS strain 307 (II),−− (“−−” indicates an O.D.600 of 0.001 to 0.099)
